Laboratory results: the METLIN SMRT retention time set (Domingo-Almenara et al. 2019)

Assay: gradient 5% acetonitrile 3 min, to 50% in 2 min, to 85% in 15 min, held 3 min, 100 µL/min
Conditions: column: Zorbax Extend-C18 2.1 x 50 mm; eluents: water / acetonitrile, 0.1% formic acid
In short: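 Values are retention times taken from adduct peaks that software picked and an analyst inspected. The pure standards were run as mixtures of ~100 molecules on HPLC linked to a quadrupole time-of-flight mass spectrometer, in positive and negative ionization mode. A Zorbax Extend-C18 column (2.1 × 50 mm, 1.8 μm) was used at 100 μL/min with water and acetonitrile, each including 0.1% formic acid.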

RP-LC retention time [s]	Structure (SMILES)
699	CCc1ccc(NC(=O)Cn2c(N3CCCC3)nc(C)cc2=O)cc1
1040	Cc1ccc(S(=O)(=O)N2CCC(C)(C(=O)NCc3ccccc3C)CC2)c(C)c1
1090	CCC(c1cccs1)N1C(=O)[C@H]2CN(S(=O)(=O)c3cc(C)ccc3C)C[C@H]2C1=O (stereo not given in full)
864	CCC(C)N(CC(=O)N(Cc1ccco1)CC1CCCO1)C(=O)c1ccc(F)cc1 (stereo not given)
655	O=C(c1ccc(Nc2c(-c3ccccc3)nc3cnccn23)cc1)N1CCOCC1
971	COc1cc(OC)cc(C(=O)N2CCN(c3nc4ccccc4cc3-c3noc(C)n3)CC2)c1
712	CSc1ccc(-c2nc3cccc(C)n3c2Nc2ccc3c(c2)OCO3)cc1
796	Cc1nn2c(CNC(=O)c3ccccn3)c(-c3ccccc3)nc2s1
796	Cc1sc(-c2nnc(C3CC3)o2)cc1NC(=O)c1ccnn1C
715	COc1ccc(CCNC(=O)Cn2ccc3ccc(-c4nnc(C)o4)cc32)cc1OC
689	N#CC[C@@H](C1CCCC1)n1cc(-c2ncnc3[nH]ccc23)cn1
840	Cn1c(=O)c(SCC(=O)NCCCc2ccccc2)nc2ccccc21
932	CCOC(=O)c1nc(Nc2ccc(CC)cc2)c2ccccc2n1
520	Cn1cc(C(=O)NCCn2ncccc2=O)nn1
1030	CCc1ccc(NS(=O)(=O)c2cc(-c3nc(C)cs3)cs2)cc1
1290	Cc1ccc2c(c1)OCC(=O)N2Cc1nc(-c2ccc(C(C)(C)C)cc2)no1
857	COCC(=O)Nc1cnc(-c2ccc(Cl)cc2)nc1
695	CC(=O)c1ccc(N2CCN(C(=O)c3ccc(-n4cccn4)nn3)CC2)cc1
1150	COc1ccc(CN2C=C(C(=O)OCc3noc(C4CCCCC4)n3)C(C)=NS2(=O)=O)cc1
1210	COc1ccc2c(c1)CCc1sc(NC(=O)c3ccc(OC)c(Br)c3)nc1-2
542	O=C(NCCCN1CCCC1)C1CCN(c2cnc(N3CCCC3)nc2)CC1
1090	Cc1nc(-c2ccc(-c3noc(Cc4c[nH]c5ccccc45)n3)cc2)cs1
913	CCN(Cc1ccccc1)S(=O)(=O)c1cc(-c2nnc(C3CCC3)o2)co1

RP-LC retention time [s]	Structure (SMILES)
942	CCc1nc2cc(N3CCC(C(=O)Nc4ccccc4OC)CC3)cnc2nc1CC
602	Cc1ccc(C)c(N2CCN(c3ccc(-c4nc(-c5cccc(F)c5)no4)cn3)CC2)c1
642	CNCc1ccc(-c2ccccc2Cl)o1
852	Cc1ccc(NC(=O)Nc2nc(C(=O)Nc3ccc4c(c3)OCO4)cs2)cc1
903	O=C(CN1C(=O)CCc2cc(Br)ccc21)Nc1ccc(F)cc1
1180	COC(=O)c1ccc2c(=O)n(-c3cc(C)cc(C)c3)c(N3CCSC3)nc2c1
710	CCOc1ccc(NC(=O)c2oc3ccc(F)cc3c2C)c2cccnc12
794	Cc1ccc(C)c(NC(=O)N2C[C@H](c3nc(-c4cccnc4)no3)[C@@H](C)C2)c1
681	COCCNC(=O)c1nc(Nc2ccc(F)cc2)c2ccccc2n1
557	CN1CCN(c2ncncc2N2CCC(C(=O)N3CCCCC3)CC2)CC1
1220	CCN1C(=O)C2(CCN(S(=O)(=O)c3ccc4c(c3)CCCC4)CC2)c2ccccc21
855	Cc1cc(C)c(C(=O)N2CCCC(C(=O)NCc3cccc(Br)c3)C2)[nH]1 (stereo not given)
993	COc1cccc(-c2nn3c(CSc4ccccc4)nnc3s2)c1
806	CCC(C(=O)c1ccccc1)n1c(N2CCOCC2)nc2c1c(=O)n(C)c(=O)n2C (stereo not given)
910	Cc1ccc(Cl)cc1S(=O)(=O)NCC(=O)N1CCOC(c2ccccc2)C1 (stereo not given)
696	Clc1ccccc1-c1nc(N2CCCC2)c2ccccc2n1
899	COC(=O)c1cccc(C(=O)Nc2cccc(C)c2C)n1
741	Cc1ccc(-n2cc3c(N4CCCC(C(=O)NC(C)c5ccc(F)cc5)C4)ncnc3n2)cc1 (stereo not given)
762	COc1ccc(CNC(=O)Cn2c(=O)c(CCC(=O)NCC(C)C)nc3ccccc32)cc1
964	CCOC(=O)c1nc(Nc2cc(Cl)c(OC)cc2OC)c2ccccc2n1
750	COc1ccccc1-c1noc(C2CCCN2C(=O)c2sc(C)nc2C)n1 (stereo not given)
851	CCc1noc2nc(C)n(CC(=O)NCCc3ccc(C)cc3)c(=O)c12
598	CC(=O)N1CCN(c2nc(C)cc(N3CCCCC3)n2)CC1

RP-LC retention time [s]	Structure (SMILES)
921	Cc1nn(CC(=O)N2CCN(c3ccc(Cl)cc3)CC2)c(=O)c2nc(C(C)C)sc12
1170	O=C(NCc1ccccc1F)c1c(O)c2cccnc2n(-c2cccc(F)c2)c1=O
647	COc1ccc2c(c1)c(N1CCCC1=O)c(C(=O)NCCCN1CC(C)CC(C)C1)n2C (stereo not given)
1310	O=S(=O)(c1ccc(Cl)s1)N1CCc2nc(-c3ccc(Cl)cc3)ncc2C1
958	Cc1ccc(CNC(=O)CSc2nccc(N3CCN(c4cc(C)ccc4C)CC3)n2)cc1
658	CCOC(=O)c1ccc(NC(=O)N2CCN(c3nc4ccccc4n3C)CC2)cc1
794	Cc1cccc(CNC(=O)C2CCN(S(=O)(=O)c3ccc4c(c3)NC(=O)CO4)CC2)c1
740	O=S(=O)(Nc1ccc(Cl)cc1F)c1c[nH]c2ncccc12
717	O=C(O)CCc1csc(NC(=O)Nc2ccc(Cl)cc2)n1
1250	CC1CCN(S(=O)(=O)c2ccc(Cl)c(-c3nnc(-c4ccccc4)o3)c2)CC1
744	O=S(=O)(Nc1ccc(Cn2cncn2)cc1)c1ccc(Cl)cc1
683	CC(C)OCCCNC(=O)C1CCCN(c2ccc(-c3ccccc3)nn2)C1 (stereo not given)
1160	COC(=O)c1cc(C)nc2c1c(=O)n(Cc1ccc(Cl)cc1)c(=O)n2Cc1ccco1
842	CCOC(=O)C1CCN(C(=O)Cn2nc(C)c3sc(-c4ccccc4)nc3c2=O)CC1
783	Cc1ccsc1C(=O)NCC1Cn2cccc2C(=O)N1CC(C)C (stereo not given)
610	Cc1ccc2cc(CCC(=O)N3CCN(C4CCCCC4)CC3)c(=O)[nH]c2c1
998	Cc1nc(Nc2ccccc2)sc1C(=O)Nc1cccc(F)c1
634	O=C(NCC1CCCO1)NC1CC(=O)N(c2ccc(Cl)cc2)C1 (stereo not given)
1040	COc1cccc(-c2csc(-c3nnn(-c4ccccc4)c3N)n2)c1
575	Cn1cnc(S(=O)(=O)N2CC(n3cc(C(=O)N4CCOCC4)nn3)C2)c1
747	Cc1nn(-c2ccc(Cl)cc2)c(C)c1S(=O)(=O)N1CCN(c2ccccn2)CC1
767	CC(C)c1ccc(S(=O)(=O)c2cnc(N3CCN(C4CCCCC4)CC3)nc2N)cc1
617	Cc1noc(/C=C\c2ccc(S(=O)(=O)N3CCN(C)CC3)cc2)c1NC(=O)C1CC1

RP-LC retention time [s]	Structure (SMILES)
605	c1cn(Cc2nc(-c3ccc4c(c3)OCO4)no2)cn1
1100	Cc1csc(-c2cc(S(=O)(=O)NCC3CCCCC3)cn2CC(=O)N2CCCCC2)n1
1160	CCCCCCNC(=O)C1CCCN(c2ncc(-c3ccc(F)cc3)cn2)C1 (stereo not given)
702	Cc1ccccc1CNC(=O)C1CC(=O)N(c2ccc3c(c2)CCN3C(=O)C2CC2)C1 (stereo not given)
842	CCOC(=O)N1CCC(NC(=O)C(=O)NCCC2=CCCCC2)CC1
761	CCc1ccc(C2=C(C)C(N3CCC(NC(=O)CCOC)CC3)=NS2(=O)=O)cc1
650	COc1ccc(CCNC(=O)c2ccc3[nH]c4c(c3c2)CN(C(C)=O)CC4)cc1OC
877	O=C(NCCCc1ccccc1)c1ccc2c(c1)CCN2C(=O)C1CC1
859	O=c1c2cc(-c3ccc(F)cc3)nn2ccn1CC(O)c1ccc(F)cc1 (stereo not given)
649	c1ccc2c(N3CCCC3)nnc(-c3nc(C4CC4)no3)c2c1
850	CSc1ccc(CNC(=O)CN2C(=O)C3CCCCN3c3ccc(C(=O)N4CCCC4)cc32)cc1 (stereo not given)
602	CC1CN(C(=O)CCC(=O)NCCCN2CCN(C3CCCCC3)CC2)c2ccccc2O1 (stereo not given)
797	O=C(CC1CCCC1)N1CCN(c2nnc3ccc(C(F)(F)F)cn23)CC1
762	CCCCNC(=O)C1CC(=O)N(CCc2c[nH]c3ccc(C)cc23)C1 (stereo not given)
753	COc1cc(N2C=C(C(=O)N3CCCC3)S(=O)(=O)c3ccccc32)cc(OC)c1OC
982	O=C(c1cccn1Cc1noc(C2CC2)n1)N1CCc2ccccc21
568	CCCCC(=O)Nc1ncn[nH]1
532	Nc1cccc(-c2nc3ccccc3[nH]2)c1
691	CCOc1cc(C(=O)Nc2cc(=O)n(C)c(=O)n2C)cc(OCC)c1OCC
594	CCCC(CCC)C(=O)NCCS(=O)(=O)N1CCN(c2ccccn2)CC1
837	O=C(NC1CCCC1)c1nc(-c2cn(-c3ccc(Cl)cc3)nn2)no1
